Experiments:
EGFR L858R T790M L718V = EGFR L858R T790M L718V (Homo sapiens, UniProt P00533, L718V/L858R/T790M); experiment: Ba/F3 cell viability, Cell Titer Glo; settings: read-out: IC50 Values; Ba/F3 cells expressing EGFR L858R T790M L718V, 72 hours
Protocol: (§1) Cell viability was determined by the Cell Titer Glo assay.
(§2) Briefly, stable Ba/F3 cell lines were generated by retroviral transduction of Ba/F3 cell line for 12 hours. […] Three days after transduction, 2 μg/ml puromycin (Invitrogen) was added to the RPMI media. Cell lines were then grown in the absence of IL-3 for two weeks and cell viability was assessed every three days using the Cell Titer Glo assay (Progema).
(§3) Briefly, 2000-3000 cells per well were plated in 384-well plates (Greiner Bio-One) in technical triplicate. Cells were treated with seven different concentrations of tyrosine kinase inhibitors or vehicle alone at a final volume of 40 μL per well. After 3 days, 11 μL of Cell Titer Glo was added to each well. Plates were shaken for 15 minutes, and bioluminescence was determined using a FLUOstar OPTIMA multi-mode micro-plate reader (BMG LABTECH). Bioluminescence values were normalized to DMSO treated cells, and normalized values were plotted in GraphPad Prism using non-linear regression fit to normalized data with a variable slope.

EGFR L858R/T790M = EGFR L858R/T790M (Homo sapiens, UniProt P00533, L858R/T790M); experiment: Ba/F3 cell viability, Cell Titer Glo; settings: read-out: IC50 Values; Ba/F3 cells expressing EGFR L858R/T790M, 72 hours
Protocol: as §1, §2, §3

EGFR Ex19delT790M L718V = EGFR Ex19delT790M L718V (Homo sapiens, UniProt P00533, DEL746-750/L718V/T790M); experiment: Ba/F3 cell viability, Cell Titer Glo; settings: read-out: IC50 Values; Ba/F3 cells expressing EGFR Ex19delT790M L718V, 72 hours
Chain of EGFR Ex19delT790M L718V (P00533 with tags, fused parts or gaps L718V/DEL746-750/T790M): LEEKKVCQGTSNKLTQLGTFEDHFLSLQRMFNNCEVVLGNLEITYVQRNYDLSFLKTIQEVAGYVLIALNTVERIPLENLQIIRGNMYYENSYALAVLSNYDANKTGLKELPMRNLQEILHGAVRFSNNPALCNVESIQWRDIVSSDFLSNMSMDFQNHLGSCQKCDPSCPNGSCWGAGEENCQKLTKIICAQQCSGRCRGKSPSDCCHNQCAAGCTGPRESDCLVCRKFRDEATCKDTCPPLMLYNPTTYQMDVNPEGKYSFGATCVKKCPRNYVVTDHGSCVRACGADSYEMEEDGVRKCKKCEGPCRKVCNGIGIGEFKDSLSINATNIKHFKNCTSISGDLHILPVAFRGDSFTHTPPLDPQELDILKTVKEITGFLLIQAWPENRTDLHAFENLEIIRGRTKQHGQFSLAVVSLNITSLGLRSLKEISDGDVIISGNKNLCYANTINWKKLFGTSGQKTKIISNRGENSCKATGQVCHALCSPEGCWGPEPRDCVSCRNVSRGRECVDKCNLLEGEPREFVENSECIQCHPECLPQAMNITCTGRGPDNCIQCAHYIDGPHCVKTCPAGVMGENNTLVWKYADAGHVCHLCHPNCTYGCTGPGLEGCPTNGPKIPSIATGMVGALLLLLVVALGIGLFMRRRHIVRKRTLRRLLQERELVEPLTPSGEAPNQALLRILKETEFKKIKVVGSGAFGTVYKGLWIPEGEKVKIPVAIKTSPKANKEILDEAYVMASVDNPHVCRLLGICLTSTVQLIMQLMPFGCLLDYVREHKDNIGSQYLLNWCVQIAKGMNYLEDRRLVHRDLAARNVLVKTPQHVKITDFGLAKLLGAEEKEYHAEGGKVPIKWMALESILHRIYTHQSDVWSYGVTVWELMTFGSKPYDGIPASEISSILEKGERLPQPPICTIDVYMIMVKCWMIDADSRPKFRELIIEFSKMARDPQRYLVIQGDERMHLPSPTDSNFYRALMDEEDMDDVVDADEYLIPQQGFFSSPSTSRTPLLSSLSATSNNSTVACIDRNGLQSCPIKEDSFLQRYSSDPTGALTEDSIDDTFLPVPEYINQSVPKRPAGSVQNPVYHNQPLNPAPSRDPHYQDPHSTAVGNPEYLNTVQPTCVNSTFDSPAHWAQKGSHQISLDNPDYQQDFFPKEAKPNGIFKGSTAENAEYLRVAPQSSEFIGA
Protocol: as §1, §2, §3

EGFR Ex19del/T790M/G724S = EGFR Ex19del/T790M/G724S (Homo sapiens, UniProt P00533, DEL746-750/G724S/T790M); experiment: Ba/F3 cell viability, Cell Titer Glo; settings: read-out: IC50 Values; Ba/F3 cells expressing EGFR Ex19del/T790M/G724S, 72 hours
Protocol: as §1, §3

EGFR L718Q T790M = EGFR L718Q T790M (Homo sapiens, UniProt P00533, L718Q/T790M); experiment: Ba/F3 cell viability, Cell Titer Glo; settings: read-out: IC50 Values; Ba/F3 cells expressing EGFR L718Q T790M, 72 hours
Protocol: as §1, §2, §3

EGFR L858R/T790M/L718Q = EGFR L858R/T790M/L718Q (Homo sapiens, UniProt P00533, L718Q/L858R/T790M); experiment: Ba/F3 cell viability, Cell Titer Glo; settings: read-out: IC50 Values; Ba/F3 cells expressing EGFR L858R/T790M/L718Q, 72 hours
Protocol: as §1, §2, §3

WT EGFR = WT EGFR (Homo sapiens, UniProt P00533); settings: read-out: IC50 values; Ba/F3 cells expressing WT EGFR (+10 ng/ml EGF), 72 hours
Protocol: as §1, §2, §3

EGFR T790M = EGFR T790M (Homo sapiens, UniProt P00533, T790M); experiment: Ba/F3 cell viability, Cell Titer Glo; settings: read-out: IC50 Values; Ba/F3 cells expressing EGFR T790M, 72 hours
Protocol: as §1, §2, §3

EGFR Ex19delT790M = EGFR Ex19delT790M (Homo sapiens, UniProt P00533, DEL746-750/T790M); experiment: Ba/F3 cell viability, Cell Titer Glo; settings: read-out: IC50 Values; Ba/F3 cells expressing EGFR Ex19delT790M, 72 hours
Chain of EGFR Ex19delT790M (P00533 with tags, fused parts or gaps DEL746-750/T790M): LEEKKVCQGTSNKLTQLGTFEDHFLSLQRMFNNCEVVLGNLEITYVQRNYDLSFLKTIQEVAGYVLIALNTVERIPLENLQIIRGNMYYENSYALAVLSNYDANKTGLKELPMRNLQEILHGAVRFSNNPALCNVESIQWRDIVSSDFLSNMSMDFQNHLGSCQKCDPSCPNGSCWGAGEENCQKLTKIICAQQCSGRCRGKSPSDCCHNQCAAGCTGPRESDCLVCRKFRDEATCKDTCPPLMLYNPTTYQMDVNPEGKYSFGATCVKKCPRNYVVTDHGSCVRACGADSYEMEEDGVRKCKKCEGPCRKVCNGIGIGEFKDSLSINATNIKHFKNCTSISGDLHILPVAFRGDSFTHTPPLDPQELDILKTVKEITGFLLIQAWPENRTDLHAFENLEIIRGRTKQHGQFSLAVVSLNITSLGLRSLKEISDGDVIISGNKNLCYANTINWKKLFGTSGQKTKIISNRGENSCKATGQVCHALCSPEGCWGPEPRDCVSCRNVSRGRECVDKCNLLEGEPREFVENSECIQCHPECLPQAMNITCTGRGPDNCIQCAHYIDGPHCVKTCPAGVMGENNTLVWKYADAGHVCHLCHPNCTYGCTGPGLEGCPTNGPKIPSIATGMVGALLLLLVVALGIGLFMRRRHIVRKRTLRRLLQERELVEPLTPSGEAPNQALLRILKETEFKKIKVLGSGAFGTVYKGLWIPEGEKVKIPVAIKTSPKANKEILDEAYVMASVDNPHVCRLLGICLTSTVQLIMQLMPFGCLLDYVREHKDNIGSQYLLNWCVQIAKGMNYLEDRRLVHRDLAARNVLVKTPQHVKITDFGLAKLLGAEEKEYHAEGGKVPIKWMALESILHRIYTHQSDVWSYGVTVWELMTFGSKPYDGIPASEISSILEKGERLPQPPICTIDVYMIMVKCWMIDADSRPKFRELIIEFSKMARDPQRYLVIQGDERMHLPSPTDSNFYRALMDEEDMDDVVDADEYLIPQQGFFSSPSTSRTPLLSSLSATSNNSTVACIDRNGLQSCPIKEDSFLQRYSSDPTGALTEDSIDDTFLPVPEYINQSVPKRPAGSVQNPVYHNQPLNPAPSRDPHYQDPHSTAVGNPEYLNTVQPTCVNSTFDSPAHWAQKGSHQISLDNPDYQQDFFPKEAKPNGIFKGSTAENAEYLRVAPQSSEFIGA
Protocol: as §1, §2, §3

EGFR G719A T790M = EGFR G719A T790M (Homo sapiens, UniProt P00533, G719A/T790M); experiment: Ba/F3 cell viability, Cell Titer Glo; settings: read-out: IC50 Values; Ba/F3 cells expressing EGFR G719A T790M, 72 hours
Protocol: as §1, §3

EGFR S768I/T790M = EGFR S768I/T790M (Homo sapiens, UniProt P00533, S768I/T790M); experiment: Ba/F3 cell viability, Cell Titer Glo; settings: read-out: IC50 Values; Ba/F3 cells expressing EGFR S768I/T790M, 72 hours
Protocol: as §1, §3

EGFR G724S T790M = EGFR G724S T790M (Homo sapiens, UniProt P00533, G724S/T790M); experiment: Ba/F3 cell viability, Cell Titer Glo; settings: read-out: IC50 Values; Ba/F3 cells expressing EGFR G724S T790M, 72 hours
Protocol: as §1, §2, §3

EGFR L858R T790M/C797S = EGFR L858R T790M/C797S (Homo sapiens, UniProt P00533, C797S/L858R/T790M); experiment: Ba/F3 cell viability, Cell Titer Glo; settings: read-out: IC50 Values; Ba/F3 cells expressing EGFR L858R T790M/C797S, 72 hours
Protocol: as §1, §2, §3

EGFR L858R T790M V843I = EGFR L858R T790M V843I (Homo sapiens, UniProt P00533, L858R/T790M/V843I); experiment: Ba/F3 cell viability, Cell Titer Glo; settings: read-out: IC50 Values; Ba/F3 cells expressing EGFR L858R T790M V843I, 72 hours
Protocol: as §1, §2, §3

EGFR L858R T790M L792H = EGFR L858R T790M L792H (Homo sapiens, UniProt P00533, L792H/L858R/T790M); experiment: Ba/F3 cell viability, Cell Titer Glo; settings: read-out: IC50 Values; Ba/F3 cells expressing EGFR L858R T790M L792H, 72 hours
Chain of EGFR L858R T790M L792H (P00533 25-1210 T790M/L792H/L858R): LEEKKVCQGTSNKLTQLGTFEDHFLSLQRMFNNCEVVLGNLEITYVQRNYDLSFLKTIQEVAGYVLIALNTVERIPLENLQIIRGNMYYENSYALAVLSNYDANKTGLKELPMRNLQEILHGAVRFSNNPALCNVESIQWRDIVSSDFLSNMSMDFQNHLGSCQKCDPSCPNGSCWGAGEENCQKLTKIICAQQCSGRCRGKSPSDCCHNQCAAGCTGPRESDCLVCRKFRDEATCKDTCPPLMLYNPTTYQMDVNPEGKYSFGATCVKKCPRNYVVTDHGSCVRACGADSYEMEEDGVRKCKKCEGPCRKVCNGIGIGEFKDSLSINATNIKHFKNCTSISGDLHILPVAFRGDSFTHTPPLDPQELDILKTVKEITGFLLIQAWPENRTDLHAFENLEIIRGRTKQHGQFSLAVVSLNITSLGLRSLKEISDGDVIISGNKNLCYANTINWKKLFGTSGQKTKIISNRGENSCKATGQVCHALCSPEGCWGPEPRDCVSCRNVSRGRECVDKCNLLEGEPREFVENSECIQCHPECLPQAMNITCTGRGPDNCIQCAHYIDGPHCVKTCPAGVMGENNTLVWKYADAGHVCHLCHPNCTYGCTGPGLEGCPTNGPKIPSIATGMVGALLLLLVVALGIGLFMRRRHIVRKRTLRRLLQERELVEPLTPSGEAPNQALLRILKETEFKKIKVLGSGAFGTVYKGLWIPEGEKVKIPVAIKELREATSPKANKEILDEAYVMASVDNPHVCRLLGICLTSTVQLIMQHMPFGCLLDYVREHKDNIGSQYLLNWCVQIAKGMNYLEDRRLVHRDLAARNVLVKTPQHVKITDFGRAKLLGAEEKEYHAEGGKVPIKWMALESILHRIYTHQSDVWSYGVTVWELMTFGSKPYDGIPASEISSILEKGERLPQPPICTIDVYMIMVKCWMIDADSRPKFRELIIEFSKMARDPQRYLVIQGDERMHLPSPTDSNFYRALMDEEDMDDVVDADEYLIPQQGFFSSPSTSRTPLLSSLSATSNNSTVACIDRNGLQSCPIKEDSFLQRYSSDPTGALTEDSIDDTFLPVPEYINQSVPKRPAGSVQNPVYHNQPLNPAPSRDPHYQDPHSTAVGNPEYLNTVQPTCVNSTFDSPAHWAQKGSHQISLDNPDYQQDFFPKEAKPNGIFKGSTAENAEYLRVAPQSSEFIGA
Protocol: as §1, §2, §3

EGFR Ex19del T790M C797S = EGFR Ex19del T790M C797S (Homo sapiens, UniProt P00533, C797S/DEL746-750/T790M); experiment: Ba/F3 cell viability, Cell Titer Glo; settings: read-out: IC50 Values; Ba/F3 cells expressing EGFR Ex19del T790M C797S, 72 hours
Protocol: as §1, §2, §3

EGFR Ex19del/T790M/L792H = EGFR Ex19del/T790M/L792H (Homo sapiens, UniProt P00533, DEL746-750/L792H/T790M); experiment: Ba/F3 cell viability, Cell Titer Glo; settings: read-out: IC50 Values; Ba/F3 cells expressing EGFR Ex19del/T790M/L792H, 72 hours
Protocol: as §1, §2, §3

Chain of EGFR L858R T790M L718V (P00533 25-1210 L718V/T790M/L858R): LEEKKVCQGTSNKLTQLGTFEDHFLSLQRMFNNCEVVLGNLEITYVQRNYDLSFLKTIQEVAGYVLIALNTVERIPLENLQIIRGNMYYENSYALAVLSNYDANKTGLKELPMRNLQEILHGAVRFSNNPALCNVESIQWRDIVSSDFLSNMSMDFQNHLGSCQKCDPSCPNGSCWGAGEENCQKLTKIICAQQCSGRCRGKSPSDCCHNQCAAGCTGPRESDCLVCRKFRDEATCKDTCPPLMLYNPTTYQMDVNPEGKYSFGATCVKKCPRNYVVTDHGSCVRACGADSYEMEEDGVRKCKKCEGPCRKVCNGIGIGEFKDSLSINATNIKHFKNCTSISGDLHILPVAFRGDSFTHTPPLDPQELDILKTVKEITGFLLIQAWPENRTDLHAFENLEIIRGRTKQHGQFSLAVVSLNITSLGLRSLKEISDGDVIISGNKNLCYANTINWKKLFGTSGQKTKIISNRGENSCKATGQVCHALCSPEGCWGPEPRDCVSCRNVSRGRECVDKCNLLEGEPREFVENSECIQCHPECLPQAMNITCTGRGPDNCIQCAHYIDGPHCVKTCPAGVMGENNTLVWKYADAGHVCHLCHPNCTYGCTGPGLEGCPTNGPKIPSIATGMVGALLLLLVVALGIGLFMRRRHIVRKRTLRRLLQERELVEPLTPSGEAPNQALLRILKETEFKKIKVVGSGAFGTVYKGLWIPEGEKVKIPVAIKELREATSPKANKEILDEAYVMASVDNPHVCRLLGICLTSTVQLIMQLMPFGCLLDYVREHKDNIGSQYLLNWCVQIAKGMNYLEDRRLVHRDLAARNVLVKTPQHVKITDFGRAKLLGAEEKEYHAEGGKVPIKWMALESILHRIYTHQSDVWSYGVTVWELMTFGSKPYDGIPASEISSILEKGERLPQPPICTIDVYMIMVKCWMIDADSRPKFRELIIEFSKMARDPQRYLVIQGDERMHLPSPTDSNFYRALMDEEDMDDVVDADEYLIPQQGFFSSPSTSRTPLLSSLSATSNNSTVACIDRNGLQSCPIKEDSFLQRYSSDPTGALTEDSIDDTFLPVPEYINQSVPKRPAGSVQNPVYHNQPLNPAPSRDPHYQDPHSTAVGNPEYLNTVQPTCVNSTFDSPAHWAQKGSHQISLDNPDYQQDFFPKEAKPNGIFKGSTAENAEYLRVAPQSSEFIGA

IC50 (WT EGFR): 1630 nM
SMILES: COc1cc(N2CCC(N)CC2)ccc1Nc1ncc(Cl)c(-c2c[nH]c3ccccc23)n1 [AZD3463]
IC50 (EGFR L858R T790M L718V): 662 nM
IC50 (EGFR L858R/T790M): 2400 nM
IC50 (EGFR Ex19delT790M L718V): 1340 nM
IC50 (EGFR Ex19del/T790M/G724S): 1610 nM
IC50 (EGFR L718Q T790M): 1140 nM
IC50 (EGFR L858R/T790M/L718Q): 1120 nM
IC50 (EGFR T790M): 1270 nM
IC50 (EGFR Ex19delT790M): 255 nM
IC50 (EGFR G719A T790M): 1340 nM
IC50 (EGFR S768I/T790M): 1730 nM
IC50 (EGFR G724S T790M): 695 nM
IC50 (EGFR L858R T790M/C797S): 1270 nM
IC50 (EGFR L858R T790M V843I): 768 nM
IC50 (EGFR L858R T790M L792H): 1550 nM
IC50 (EGFR Ex19del T790M C797S): 1440 nM
IC50 (EGFR Ex19del/T790M/L792H): 1090 nM

Reference: patent US20260240847A1, “COMPOUNDS WITH ANTI-TUMOR ACTIVITY AGAINST CANCER CELLS BEARING TYROSINE KINASE INHIBITOR RESISTANT EGFR MUTATIONS” (BOARD OF REGENTS, THE UNIVERSITY OF TEXAS SYSTEM, priority 2019, published 2026)
